Assay results: US20110177180A1, “HERBAL COMPOSITION AND METHOD FOR THE TREATMENT OF VIRAL INFECTION” (PIRAMAL LIFE SCIENCES LIMITED, priority 2008, published 2011)

Legend:
HSV-2 [1] = test: Mouse vaginal model of HSV-2 infection (Example 15); assay type: in vivo, BALB/c mice; conditions: 225mg/kg
Procedure: (§1) Female BALB/c mice of eight weeks age and body weight 18-20 g were used for intravaginal (IVAG) challenge (vaginal inoculation) with the virus (using viral stock of step 2 of example 10). Five days prior to the IVAG challenge, mice were injected subcutaneously (SC) with 2 mg of progesterone (Depo-Provera®; Pfizer, Belgium) in the upper back, using a 29-gauge needle. On the day of challenge, mice were anesthetized with Ketamine (150 mg/kg) and Xylazine (10 mg/kg) by intraperitoneal injection. Mice were inoculated intravaginally with 5×10^3 pfu of the virus using a micropipette in a total volume of 20 μL DMEM. […] Each group had ten animals. Animals were treated three times a day with the treatment intervals of 4 hours for 5 days. 20 μL of the above samples were injected into the vaginal vault using micropipette.
The animals were assessed daily for survival and extravaginal disease signs through 21 days of post inoculation (PI). The severity of the viral disease (extravaginal signs of disease) was quantified using a well-established lesion score scale, also known as five-point scale as follows: • 0: no apparent infection; • 1: few isolated papules and slight redness of extravaginal tissue; • 2: few isolated papules, ulcers, and/or eschar and/or swelling and redness of extravaginal tissue; • 3: multiple fused ulcers/eschars, moderate swelling and redness of extravaginal tissue with extension to surrounding tissue; • 4: ulceration with severe redness and swelling of extravaginal tissue with extension to surrounding tissue, rear leg paralysis; and • 5: severe ulceration of extravaginal tissue with extension to surrounding tissue, weight loss, rear leg paralysis and death.
The assay was performed as mentioned in Example 14 with modifications as mentioned below: • (i) Mice were inoculated intravaginally with 2×10^4 pfu of the virus instead of 5×10^3 pfu in Example 14. • (ii) Evaluation was done by topical application of the formulations (Formulation I, Formulation II and Formulation III) instead of injection of extracts into vaginal vault of the animals in Example 14. • (iii) One more group of animals was studied: “infection control group” in which the mice were inoculated with the virus but were not treated.
Extract of Example 1 (dissolved in PBS) was injected into the vaginal vault using micropipette. Formulation I, Formulation II and Formulation III were applied topically (25 mg) thrice daily for a 5 day period. 25 mg of Formulation IB, IIB or IIIB correspond to 375 mg/kg dose; 25 mg of Formulation IC, IIC or IIIC correspond to 750 mg/kg dose and 25 mg of Formulation ID, IID and IIID correspond to 1500 mg/kg dose evaluated in the animals.

HSV-2 [2] = test: CPE inhibition assay - crystal violet staining method; assay type: cell-based; conditions: Human alphaherpesvirus 2; 25 μg/mL; Vero cells, HSV-2 100 TCID50, 48 hours
Procedure: The assay was designed to detect agents (in this case, the extracts) acting at any stage of the virus reproductive cycle. The assay was done as reported in Indian J. Med. Res., 2004, 120:24-29.
Vero cells (obtained in step 1 of Example 10) were propagated at a density of 1×10^4 cells/well in 96 well plate and incubated at 37° C. in a CO2 incubator for 24 hours to form a monolayer. […] Appropriate controls were included such as Vero cells alone (cell control), Vero cells with virus (virus control) and Vero cells with virus and the standard compound acyclovir. Acyclovir was checked at the following concentrations (DMSO stock of 20 mg/mL of acyclovir was diluted to 100 μg/mL with DMEM containing 2% FBS): 25 μg/mL, 3.125 μg/mL, 1.56 μg/mL and 0.78 μg/mL and 0.39 μg/mL. After one hour, cells were infected with a multiplicity of infection (moi) of 100 TCID50 of viral dose per well using viral stock obtained in step 2 of Example 10. The infected cells were incubated with maintenance medium (DMEM with 2% FBS) for another 48 hours. […] The staining solution was aspirated out and the plates rinsed using distilled water until all excess stain was washed away. The plates were allowed to dry for 24 hours. CPE was evaluated visually, after staining the plaques, and microscopically and graded according to the percentage of CPE inhibition as compared to controls. […]

HSV-2 [3] = test: Mouse vaginal model of HSV-2 infection (Example 14); assay type: in vivo, BALB/c mice; conditions: 75 mg/kg in PBS intravaginal, three times a day for 5 days; 5×10^3 pfu; 21 days
Procedure: The assay was done as reported in Antiviral Research, 2006, 69:77-85.
as §1
The animals were assessed daily for survival and extravaginal disease signs through 21 days of post inoculation (PI). […]

[4] = positive control in evaluation of Formulation I
[5] = positive control in evaluation of Formulation II
[6] = positive control in evaluation of Formulation III
[7] = positive control in evaluation of extract of Example 1

In the case of `Nc1nc2c(ncn2COCCO)c(=O)[nH]1` [Acyclovir], the extravaginal disease (HSV-2 [1]; [4]) is reported as “None of the mice showed extravaginal disease”, the survival rate (HSV-2 [1]; [4]) is reported as 100% and the “course of extravaginal disease” value (HSV-2 [1]; [5]) is reported as “continued till day 21”. The “day on which extravaginal disease appeared” value (HSV-2 [1]; [5]) was 18 days, the survival rate (HSV-2 [1]; [5]) was 100% and the extravaginal disease (HSV-2 [1]; [6]) was “None of the mice showed extravaginal disease”. The survival rate (HSV-2 [1]; [6]) was 100%, the extravaginal disease (HSV-2 [1]; [7]) was “None of the mice showed extravaginal disease” and the survival rate (HSV-2 [1]; [7]) was 100%. For the same molecule, the inhibition at 25 µg/mL (HSV-2 [2]) was 76 to 100%, the “deaths during the experiment” value (HSV-2 [3]) was “None of the mice died during the experiment” and the “signs of extravaginal disease” value (HSV-2 [3]) was “None of the mice showed signs of extravaginal disease”.
